The values that follow come from US20240285555A1, “COMPOSITIONS FOR THE TREATMENT OF COPPER DEFICIENCY AND METHODS OF USE” (priority 2018, published 2024).

One data set deals with sco1Δ cells. Put plainly: Respiratory growth rescue of sco1Δ yeast. Format: cell-based, Saccharomyces cerevisiae. To be noted: non-fermentable media, 37° C. The method, then: (§1) Yeast Strains and Culture Conditions. The authenticity of yeast strains was confirmed by PCR as well as by replica plating on dropout plates. Yeast cells were cultured in standard YP growth media including YPD (1% yeast extract, 2% peptone and 2% glucose), YPGal (2% galactose), YPGE (3% glycerol+1% ethanol), or synthetic media (SC glucose). For qualitative growth measurement, 10-fold serial dilutions of overnight cultures were spotted on YPD or YPGE plates and incubated at 30° C. and 37° C. for the indicated period. Growth in liquid media was measured spectrophotometrically at 600 nm.
(§2) ES Rescues Many Different Yeast Mutants with Impaired Copper Metabolism. To test the specificity of ES mediated rescue, a number of yeast mutants of genes required for maintaining cellular and mitochondrial copper homeostasis were shortlisted. Genes were prioritized based on their evolutionary conservation, presence of pathogenic mutations in humans, and/or the existence of a related mouse phenotype (Table 3, shown below). […] Most of the yeast mutants were rescued with ES supplementation, albeit to different degrees, reflecting their distinct roles in cellular and mitochondrial copper homeostasis.

The next data set concerns Yeast coa6Δ cells. Put plainly: Rescue of respiratory growth of yeast coa6Δ cells in YPGE medium (cell density at 600 nm). The data set is classed as cell-based, Saccharomyces cerevisiae. The method, then: FIG. 1 illustrates determination of the median effective dose (ED50) of elesclomol. Yeast coa6Δ cells were cultured in YPGE medium at 37° C. in the presence of increasing concentrations (0.01 nM to 1 μM) of elesclomol (ES). The cell density was measured spectrophotometrically after 58 hours of growth at 600 nm. The data represent the average±SD from three independent measurements.
FIGS. 3A and 3B illustrates elesclomol rescue of respiratory growth of coa6Δ cells is dependent on copper availability. BY4741 WT, FIG. 3A, and coa6Δ, FIG. 3B, cells were cultured in YPGE medium at 37° C. in the presence of 10 nM ES, 20 μM of the copper chelator bathocuproine disulfonic acid (BCS), or a combination of both. The cell density was measured spectrophotoretrically at the indicated time points at 600 nm. The data are representative of two independent experiments.
as §1
A number of copper-binding pharmacological agents were tested for their ability to rescue respiratory deficient growth of coa6Δ cells. […] ES rescued the respiratory growth of coa6Δ cells with an ED50 of 0.8 nM (FIG. 1). ES-mediated growth rescue of coa6Δ cells was also observed on solid growth medium containing a non-fermentable carbon. […] To determine the biochemical basis for the observed respiratory rescue of coa6Δ cells, the assembly and activity of CcO-containing mitochondrial respiratory chain supercomplexes was measured by native-polyacrylamide gel electrophoresis blotting and in-gel activity assay, respectively. […]

In another data set the test system is control MEFs. Put plainly: COX1 levels in control mouse embryonic fibroblasts (toxicity). The data set is classed as cell-based. To be noted: higher doses of ES. The method, then: Mammalian Cell Culture. The human control MCH46 and SCO2 patient fibroblasts as well as the rat H9c2 control and Ctr1^−/− cardiomyocytes were cultured in high glucose Dulbecco's modified Eagle's medium (DMEM) supplemented with 10% fetal bovine serum (Sigma) and 1 mM sodium pyruvate (Life Technologies). The mouse embryonic fibroblasts were cultured in DMEM 10% FBS, 1 mM sodium pyruvate, 1× minimum essential medium non-essential amino acids (MEM NEAA; Life Technologies 11140), 50 μg/mL uridine, and 1× Pen Strep Glutamine (Life Technologies 10378). All cell lines were cultured under 5% CO2 at 37° C. and were treated with indicated concentrations of ES for 3-6 days before harvesting. Whole cell protein was extracted in lysis buffer (BP-115, Boston BioProducts) supplemented with protease inhibitor cocktail (Roche Diagnostics) and the protein concentrations were determined by BCA assay (Thermo Scientific).
Immunoblotting and In-gel Activities. Sodium dodecyl sulfate polyacrylamide gel electrophoresis (SDS-PAGE) and Blue Native PAGE (BN-PAGE) were performed to separate denatured and native protein complexes, respectively. For SDS-PAGE, mitochondrial lysate ([…]) was separated on NuPAGE 4-12% Bis-Tris gels (Life Technologies, Carlsbad, CA). For BN-PAGE, yeast mitochondria were solubilized in buffer containing 1% digitonin (Life Technologies) by incubating for 15 min at 4° C. […]

A further data set relates to zebrafish embryos. Put plainly: Survival of zebrafish embryos treated with ES, copper and combinations. The data set is classed as in vivo. The text has this:
NT, No treatment; ES, Elesclomol.

In a further data set the test system is yeast ccc2Δ. Put plainly: Respiratory growth rescue of ccc2Δ yeast. The data set is classed as cell-based, Saccharomyces cerevisiae. To be noted: non-fermentable media, 37° C. The method, then:
as §1
as §2, with “homeostasis. […]” for “homeostasis.”

The next data set relates to coa6Δpic2Δ cells. Put plainly: Respiratory growth rescue of coa6Δpic2Δ yeast. The data set is classed as cell-based, Saccharomyces cerevisiae. The settings on record: ES supplementation.

Structures are written as SMILES.

Description for coa6Δpic2Δ cells: To further corroborate that ES increases mitochondrial copper levels by actively transporting extracellular copper into the cells, copper availability in the extracellular compartment was decreased by co-treatment of ES with a known copper chelator, bathocuproine disulfonate (BCS). […] To determine whether ES is able to bypass a mitochondrial copper transporter, Pic2, ES supplementation in pic2Δ and coa6Δpic2Δ cells was performed.

In the case of `CN(NC(=O)CC(=O)NN(C)C(=S)c1ccccc1)C(=S)c1ccccc1` [ES, elesclomol], the “rescue of respiratory growth” value in the data set with sco1Δ cells is recorded as “failed to rescue”; in the data set on yeast ccc2Δ, “rescue”; in the data set on coa6Δpic2Δ cells it was “did rescue”. In the data set on Yeast coa6Δ cells (10 nM ES with 20 μM BCS), the “ES mediated rescue in the presence of BCS” value is recorded as “diminished”. In addition, the “potency relative to copper in rescuing the respiratory growth defect” value in the data set on Yeast coa6Δ cells (ES versus copper) is “at least 1000 times”. Moreover, the EC50 in the data set with Yeast coa6Δ cells (Saccharomyces cerevisiae, YPGE medium, 37° C., 0.01 nM to 1 μM ES, cell density at 600 nm after 58 hours, read-out: ED50 of rescue of respiratory growth) was 800 pM. For the same molecule, the “ES toxicity reflected in COX1 levels” value in the data set with control MEFs is given as “reduced COX1 levels”. The lethality with zebrafish embryos (co-supplementation of 100 nM ES with 100 nM of copper) is reported as 100%. The maximal tolerable dose in the data set with zebrafish embryos (zebrafish embryos) amounted to 100 nM.
